Biological target: T1, human alpha-7 nAChR (Homo sapiens, UniProt P36544)
T1 construct: expressed in transfected cells; host or cells: Xenopus laevis oocytes (cRNA injection)
Test: Two-electrode voltage clamp of alpha-7 nAChR expressed in Xenopus oocytes (net charge)
Type: cell-based
Conditions: area under the curve of current vs. time; for Charge +C: compound together with choline or ACh, includes PAM and ago-PAM activity; for Charge Alone: compound alone acting as an allosteric agonist; call rule not given here
Procedure: The human alpha-7 nAChR receptor clone was obtained from Dr. Jon Lindstrom {University of Pennsylvania, Philadelphia, Pa.), aid the RIC-3 clone from Dr. Millet Treinin (Hebrew University, Jerusalem, Israel) for the purpose of co-injection with a7 to improve the level and speed of receptor expression (Halevi et al., 2003). After linearization and purification of cloned cDNA's, RNA, transcripts were prepared rising the appropriate mMessage mMachine kit tiom Ambion (Austin, Tex.).
Expression in X, laeivis Oocytes
Oocytes were obtained from mature (>9 cm) female Xenopus laeivis African frogs (Nasco, Ft. Atkinson, Wis.). Frogs were anesthetized in 0.7 g/L solution of ethyl 3-aminobenzoate methanesulfonate buffered with sodium bicarbonate, and oocytes were surgically removed through an abdominal incision. Harvested oocytes were treated with 1.25 mg/ml collagenase (Worthington Biochemicals, Freehold, N.J.) in calcium-free Barth's solution (88 mM NaCl, 1 mM KCl, 2.38 mM NaHCO3, 0.82 mM MgSO4, 15 mM HEPES, 12 mg/L tetracycline, pH 7.6) for 3-4 hours to remove the follicular layer. Stage-5 oocytes were isolated and injected with 50 nL (5-20 ng) of human alpha-7 and RIC-3 cRNA. Suitable levels of receptor expression were typically achieved 2-6 days after injection of cRNA. For experiments involving the PAM 4BP-TQS/GAT-107, where standard levels of expression result in ion currents too large to be recorded in voltage clamp, experiments were typically conducted 1-3 days after RNA injection.
Two-electrode voltage clamp experiments were conducted using OpusXpress6000A (Molecular Devices, Sunnyvale, Calif.), an integrated system that provides automated impalement and voltage clamp of up to eight oocytes in parallel. Both the current and voltage electrodes were filled with 3 M KCl, and oocytes were clamped at a holding potential of −60 mV. Data were collected at 50 Hz and filtered at 20 Hz. The oocytes were bath-perfused with Ringer's solution (115 mM NaCl, 10 mM HEPES, 2.5 mM KCl, 1.8 mM CaCl2, pH 7.3), and agonist solutions were delivered from a 96-well drug plate using disposable tips. Flow rates were set at 2 mL/min, with each drug or control solution delivered in 12 s durations, followed˜by 181 s washouts with Ringer's unless noted otherwise.
Experimental Protocols and Data Analysis
Responses of human alpha-7 receptors to agonists were measured as both peek current and net charge measured over a 120 s period beginning with the compound application (Papke and Papke, 2002). […] In experiments involving positive allosteric modulators (PAMs), the fast desensitization of alpha-7 was eliminated, allowing peak currents to be used as a valid measurement of the receptor-mediated responses (Wang et al., 2012; Williams et al., 2011).
Oocytes received two control ACh applications prior to receiving any drug in order to establish a steady reference response, and they received one or more control ACh applications at the end of all experiments. For experiments involving drug incubation through bath applications, all responses were normalized to the average of two ACh control responses taken immediately prior to the switch of bath solution, for each cell individually. These normalization procedures had the effect of compensating for differing levels of receptor expression among the multiple oocytes used in each experiment. Each experiment was conducted on at least four oocytes, with mean values and standard errors (S.E.M.) calculated from their normalized responses. […]

T1 sequence (P36544 23-502): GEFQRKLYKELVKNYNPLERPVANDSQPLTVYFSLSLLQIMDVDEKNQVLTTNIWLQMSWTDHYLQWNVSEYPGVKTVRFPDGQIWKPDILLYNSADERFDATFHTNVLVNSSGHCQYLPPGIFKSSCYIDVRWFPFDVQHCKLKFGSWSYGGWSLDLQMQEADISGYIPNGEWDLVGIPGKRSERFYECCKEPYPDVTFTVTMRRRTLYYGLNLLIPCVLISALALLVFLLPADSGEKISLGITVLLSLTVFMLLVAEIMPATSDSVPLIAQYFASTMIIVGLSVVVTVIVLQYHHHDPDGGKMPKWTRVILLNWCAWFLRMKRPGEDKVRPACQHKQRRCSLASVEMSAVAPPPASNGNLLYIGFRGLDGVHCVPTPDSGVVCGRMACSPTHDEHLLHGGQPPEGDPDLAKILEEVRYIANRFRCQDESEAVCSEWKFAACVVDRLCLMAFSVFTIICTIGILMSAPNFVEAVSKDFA

Row | SMILES | Charge +C | Charge Alone
1 | NS(=O)(=O)c1ccc2c(c1)[C@H]1C=CC[C@H]1[C@@H](c1ccccn1)N2 (stereo in doubt) [Compound 52, 4-(pyridin-2-yl)-3a,4,5,9b-tetrahydro-3H-cyclopenta[c]quinoline-8-sulfonamide] | 4 | 
2 | NS(=O)(=O)c1ccc2c(c1)[C@H]1C=CC[C@H]1[C@@H](c1ccsc1)N2 (stereo in doubt) [Compound 15, 4-(thiophen-3-yl)-3a,4,5,9b-tetrahydro-3H-cyclopenta[c]quinoline-8-sulfonamide] | 500 | 
3 | NS(=O)(=O)c1ccc2c(c1)[C@H]1C=CC[C@H]1[C@@H](c1ccccc1[N+](=O)[O-])N2 (stereo in doubt) [Compound 20, 4-(2-nitrophenyl)-3a,4,5,9b-tetrahydro-3H-cyclopenta[c]quinoline-8-sulfonamide] | 52 | 
4 | NS(=O)(=O)c1ccc2c(c1)[C@H]1C=CC[C@H]1[C@@H](c1ccc(NC(=O)OC3CCCCC3)cc1)N2 (stereo in doubt) [Compound 61, cyclohexyl(4-(8-sulfamoyl-3a,4,5,9b-tetrahydro-3H-cyclopenta[c]quinolin-4-yl)phenyl)carbamate] | 85 | 
5 | NS(=O)(=O)c1ccc2c(c1)[C@H]1C=CC[C@H]1[C@@H](c1c(F)c(F)c(F)c(F)c1F)N2 (stereo in doubt) [Compound 42, 4-(perfluorophenyl)-3a,4,5,9b-tetrahydro-3H-cyclopenta[c]quinoline-8-sulfonamide] | 47 | 
6 | N#Cc1ccc([C@H]2Nc3ccc(S(N)(=O)=O)cc3[C@H]3C=CC[C@H]32)s1 [Compound 34, 4-(5-cyanothiophen-2-yl)-3a,4,5,9b-tetrahydro-3H-cyclopenta[c]quinoline-8-sulfonamide] | Insoluble | Insoluble
7 | NS(=O)(=O)c1ccc2c(c1)[C@H]1C=CC[C@H]1[C@@H](c1ccoc1)N2 (stereo in doubt) [Compound 14, 4-(furan-3-yl)-3a,4,5,9b-tetrahydro-3H-cyclopenta[c]quinoline-8-sulfonamide] | Inactive | Inactive
8 | NS(=O)(=O)c1ccc2c(c1)[C@H]1C=CC[C@H]1[C@@H](c1cccnc1)N2 [Compound 51, 4-(pyridin-3-yl)-3a,4,5,9b-tetrahydro-3H-cyclopenta[c]quinoline-8-sulfonamide] | 10 | 
9 | NS(=O)(=O)c1ccc2c(c1)[C@H]1C=CC[C@H]1[C@@H](c1csc3ccccc13)N2 (stereo in doubt) [Compound 39, 4-(benzo[b]thiophen-3-yl)-3a,4,5,9b-tetrahydro-3H-cyclopenta[c]quinoline-8-sulfonamide] | 145 | 22
10 | NS(=O)(=O)c1ccc2c(c1)[C@H]1C=CC[C@H]1[C@@H](c1cc3ccccc3s1)N2 (stereo in doubt) [Compound 41, 4-(benzo[b]thiophen-2-yl)-3a,4,5,9b-tetrahydro-3H-cyclopenta[c]quinoline-8-sulfonamide] | 528 | 3
11 | NS(=O)(=O)c1ccc2c(c1)[C@H]1C=CC[C@H]1[C@@H](c1csc(Br)n1)N2 (stereo in doubt) [Compound 85, 4-(2-bromothiazol-4-yl)-3a,4,5,9b-tetrahydro-3H-cyclopenta[c]quinoline-8-sulfonamide] | 166 | 10
12 | NS(=O)(=O)c1ccc2c(c1)[C@H]1C=CC[C@H]1[C@@H](c1scc(Br)c1Br)N2 (stereo in doubt) [Compound 38, 4-(3,4-dibromothiophen-2-yl)-3a,4,5,9b-tetrahydro-3H-cyclopenta[c]quinoline-8-sulfonamide] | 1246 | 18
13 | NS(=O)(=O)c1ccc2c(c1)[C@H]1C=CC[C@H]1[C@@H](c1ccc(N=C=S)cc1)N2 (stereo in doubt) [Compound 26, 4-(4-isothiocyanatophenyl)-3a,4,5,9b-tetrahydro-3H-cyclopenta[c]quinoline-8-sulfonamide] | 22 | 0
14 | CC(=O)c1ccc2c(c1)[C@H]1C=CC[C@H]1[C@@H](c1cc3c(cc1Br)OCO3)N2 [Compound 30] | Inactive | Inactive

The next lines start with the values.

Row | Charge +C | Charge Alone | SMILES
15 | Inactive | Inactive | O=S(=O)(c1ccc2c(c1)[C@H]1C=CC[C@H]1[C@@H](c1ccc(Br)cc1)N2)N1CCCC1 [Compound 57, (3aR,4S,9bS)-4-(4-bromophenyl)-8-(pyrrolidin-1-ylsulfonyl)-3a,4,5,9b-tetrahydro-3H-cyclopenta[c]quinolone]
16 | Inactive | Inactive | O=S(=O)(NCC1CC1)c1ccc2c(c1)[C@H]1C=CC[C@H]1[C@@H](c1ccc(Br)cc1)N2 (stereo in doubt) [Compound 105, 4-(4-bromophenyl)-N-(cyclopropylmethyl)-3a,4,5,9b-tetrahydro-3H-cyclopenta[c]quinoline-8-sulfonamide]
17 | 8.4 | 0 | NS(=O)(=O)c1ccc([C@H]2Nc3ccc(Br)cc3[C@H]3C=CC[C@H]32)cc1 (stereo in doubt) [Compound 4, 4-(8-bromo-3a,4,5,9b-tetrahydro-3H-cyclopenta[c]quinolin-4-yl)benzenesulfonamide]
18 | Inactive | Inactive | N#Cc1ccc([C@@H]2Nc3ccc(S(N)(=O)=O)cc3[C@H]3C=CC[C@H]32)cc1 (stereo in doubt) [Compound 6, 4-(4-cyanophenyl)-3a,4,5,9b-tetrahydro-3H-cyclopenta[c]quinoline-8-sulfonamide]
19 | Inactive | Inactive | O=S(=O)(c1ccc2c(c1)[C@H]1C=CC[C@H]1[C@@H](c1ccc(Br)cc1)N2)N1CCC1 [Compound 54, 8-(azetidin-1-ylsulfonyl)-4-(4-bromophenyl)-3a,4,5,9b-tetrahydro-3H-cyclopenta[c]quinolone]
20 | Inactive | Inactive | CN(C)S(=O)(=O)c1ccc2c(c1)[C@H]1C=CC[C@H]1[C@@H](c1ccc(Br)cc1)N2 (stereo in doubt) [Compound 21, 4-(4-bromophenyl)-N,N-dimethyl-3a,4,5,9b-tetrahydro-3H-cyclopenta[c]quinoline-8-sulfonamide]
21 | 350 | 14 | NS(=O)(=O)c1ccc2c(c1)[C@H]1C=CC[C@H]1[C@@H](c1ccc(C3(C(F)(F)F)N=N3)cc1)N2 [Compound 44, (3aR,4S,9bS)-4-(4-(3-(trifluoromethyl)-3H-diazirin-3-yl)phenyl)-3a,4,5,9b-tetrahydro-3H-cyclopenta[c]quinoline-8-sulfonamide]
22 | Inactive | Inactive | CCCNS(=O)(=O)c1ccc2c(c1)[C@H]1C=CC[C@H]1[C@@H](c1ccc(Br)cc1)N2 (stereo in doubt) [Compound 107, 4-(4-bromophenyl)-N-propyl-3a,4,5,9b-tetrahydro-3H-cyclopenta[c]quinoline-8-sulfonamide]
23 | 206 | 89 | NS(=O)(=O)c1ccc2c(c1)[C@H]1C=CC[C@H]1[C@@H](c1ccc(S(F)(F)(F)(F)F)cc1)N2 (stereo in doubt) [Compound 31, 4-(4-(pentafluoro-λ^6-sulfanyl)phenyl)-3a,4,5,9b-tetrahydro-3H-cyclopenta[c]quinoline-8-sulfonamide]
24 | 157 |  | NS(=O)(=O)c1ccc2c(c1)[C@H]1C=CC[C@H]1[C@@H](c1csc(Br)c1)N2 (stereo in doubt) [Compound 35, 4-(5-bromothiophen-3-yl)-3a,4,5,9b-tetrahydro-3H-cyclopenta[c]quinoline-8-sulfonamide]
25 | Inactive | Inactive | CCCNS(=O)(=O)c1ccc2c(c1)[C@H]1C=CC[C@H]1[C@H](c1ccc(Br)cc1)N2 (stereo in doubt) [Compound 106, 4-(4-bromophenyl)-N-propyl-3a,4,5,9b-tetrahydro-3H-cyclopenta[c]quinoline-8-sulfonamide]
